Laboratory results published in patent publication US20200339691A1, “PROTEINACEOUS MOLECULES AND USES THEREFOR” (priority 2018, published 2020).
Where a SMILES comes first, the peptide text is derived from it. The star is where a group is joined. Myristoyl = CCCCCCCCCCCCCC(=O)*

Columns and labels:
MDA-MB-231 cells = type: cell-based, human; conditions: 50 μM peptide, 48 hours, n = 1
Text: (§1) Non-adherent cells were removed during the washing steps.

[1] = test system: CD44^hiCD24^lo CSCs in MDA-MB-231 cells; assay: FACS analysis of CD44^hiCD24^lo cancer stem cells in MDA-MB-231 cells treated with P1 analogues; type: cell-based, human; conditions: 50 μM peptide, 48 hours; for CD44^hiCD24^lo CSCs (%) / COI, Live Single CD44^hiCD24^lo CSCs (Cell Count): n = 1; for Average Inhibition of CSCs (%) / CD44^hiCD24^lo CSCs (%) Repeat 1 / CD44^hiCD24^lo CSCs (%) Repeat 2 / CD44^hiCD24^lo CSCs (%) Repeat 3: n = 3
Method: Analogues of P1 (Table 6) were designed and synthesized in accordance with the procedure of Example 5. The ability of these analogues to inhibit cancer stem cells was determined using FACS analysis on MDA-MB-231 cells, which constitutively contain approximately 90% CD44^hiCD24^lo cancer stem cells, treated with the peptides.
as §1
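For COI, Live Single Cells (Cell Count) in this document: live means Hoechst-negative events among single cells.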

SMILES	COI (Cell Count) (MDA-MB-231 cells)	COI, Live Single Cells (Cell Count) (MDA-MB-231 cells)	COI, Single (Cell Count) (MDA-MB-231 cells)	Total Cell Count (MDA-MB-231 cells)	Inhibition of CSCs (%) Repeat 1 [1]	Inhibition of CSCs (%) Repeat 2 [1]	Inhibition of CSCs (%) Repeat 3 [1]	CD44^hiCD24^lo CSCs (%) [1]	COI, Live Single CD44^hiCD24^lo CSCs (Cell Count) [1]	Average Inhibition of CSCs (%) [1]	CD44^hiCD24^lo CSCs (%) Repeat 1 [1]	CD44^hiCD24^lo CSCs (%) Repeat 2 [1]	CD44^hiCD24^lo CSCs (%) Repeat 3 [1]
CCCCCCCCCCCCCC(=O)N[C@@H](C)C(=O)N[C@@H](Cc1ccccc1)C(=O)N[C@H](C(=O)N[C@@H](Cc1ccccc1)C(=O)N[C@@H](CCCNC(=N)N)C(=O)N[C@@H](CC(C)C)C(=O)N[C@@H](CCCNC(=N)N)C(=O)N[C@@H](CCCCN)C(=O)NCC(=O)N[C@@H](CCCNC(=N)N)C(=O)N[C@@H](CCSC)C(=O)N[C@@H](CCSC)C(=O)N[C@@H](CC(=O)O)C(=O)N[C@H](C(=O)N[C@@H](CCCCN)C(=O)N[C@@H](CCCCN)C(N)=O)C(C)C)[C@@H](C)CC [Peptide 2815302, Myristoyl-AFIFRLRKGRMMDVKK-NH2] (Myristoyl-AFIFRLRKGRMMDVKK-NH2)	516	438	466	5074	89.69%	91.79%	94.73%	19.63%	86	92.07%	9.24%	7.36%	4.73%
CCCCCCCCCCCCCC(=O)N[C@H](C(=O)N[C@@H](C)C(=O)N[C@H](C(=O)N[C@@H](Cc1ccccc1)C(=O)N[C@@H](CCCNC(=N)N)C(=O)N[C@@H](CC(C)C)C(=O)N[C@@H](CCCNC(=N)N)C(=O)N[C@@H](CCCCN)C(=O)NCC(=O)N[C@@H](CCCNC(=N)N)C(=O)N[C@@H](CCSC)C(=O)N[C@@H](CCSC)C(=O)N[C@@H](CC(=O)O)C(=O)N[C@H](C(=O)N[C@@H](CCCCN)C(=O)N[C@@H](CCCCN)C(N)=O)C(C)C)[C@@H](C)CC)[C@@H](C)O [Peptide 2815303, Myristoyl-TAIFRLRKGRMMDVKK-NH2] (Myristoyl-TAIFRLRKGRMMDVKK-NH2)	18	8	17	10195	76.31%	81.14%	80.95%	25.00%	2	79.47%	21.23%	16.92%	17.09%
CCCCCCCCCCCCCC(=O)N[C@H](C(=O)N[C@@H](Cc1ccccc1)C(=O)N[C@@H](C)C(=O)N[C@@H](Cc1ccccc1)C(=O)N[C@@H](CCCNC(=N)N)C(=O)N[C@@H](CC(C)C)C(=O)N[C@@H](CCCNC(=N)N)C(=O)N[C@@H](CCCCN)C(=O)NCC(=O)N[C@@H](CCCNC(=N)N)C(=O)N[C@@H](CCSC)C(=O)N[C@@H](CCSC)C(=O)N[C@@H](CC(=O)O)C(=O)N[C@H](C(=O)N[C@@H](CCCCN)C(=O)N[C@@H](CCCCN)C(N)=O)C(C)C)[C@@H](C)O [Peptide 2815304, Myristoyl-TFAFRLRKGRMMDVKK-NH2] (Myristoyl-TFAFRLRKGRMMDVKK-NH2)	157	122	137	4317	43.62%	47.79%	51.20%	68.03%	83	47.54%	50.53%	46.84%	43.79%
CCCCCCCCCCCCCC(=O)N[C@H](C(=O)N[C@@H](Cc1ccccc1)C(=O)N[C@H](C(=O)N[C@@H](C)C(=O)N[C@@H](CCCNC(=N)N)C(=O)N[C@@H](CC(C)C)C(=O)N[C@@H](CCCNC(=N)N)C(=O)N[C@@H](CCCCN)C(=O)NCC(=O)N[C@@H](CCCNC(=N)N)C(=O)N[C@@H](CCSC)C(=O)N[C@@H](CCSC)C(=O)N[C@@H](CC(=O)O)C(=O)N[C@H](C(=O)N[C@@H](CCCCN)C(=O)N[C@@H](CCCCN)C(N)=O)C(C)C)[C@@H](C)CC)[C@@H](C)O [Peptide 2815305, Myristoyl-TFIARLRKGRMMDVKK-NH2] (Myristoyl-TFIARLRKGRMMDVKK-NH2)	129	88	121	2870	7.19%	10.83%	2.94%	93.18%	82	6.99%	83.18%	80.00%	87.10%
CCCCCCCCCCCCCC(=O)N[C@H](C(=O)N[C@@H](Cc1ccccc1)C(=O)N[C@H](C(=O)N[C@@H](Cc1ccccc1)C(=O)N[C@@H](C)C(=O)N[C@@H](CC(C)C)C(=O)N[C@@H](CCCNC(=N)N)C(=O)N[C@@H](CCCCN)C(=O)NCC(=O)N[C@@H](CCCNC(=N)N)C(=O)N[C@@H](CCSC)C(=O)N[C@@H](CCSC)C(=O)N[C@@H](CC(=O)O)C(=O)N[C@H](C(=O)N[C@@H](CCCCN)C(=O)N[C@@H](CCCCN)C(N)=O)C(C)C)[C@@H](C)CC)[C@@H](C)O [Peptide 2815306, Myristoyl-TFIFALRKGRMMDVKK-NH2] (Myristoyl-TFIFALRKGRMMDVKK-NH2)	323	238	280	9352	67.33%	69.17%	70.79%	27.73%	66	69.09%	29.28%	27.66%	26.21%
CCCCCCCCCCCCCC(=O)N[C@H](C(=O)N[C@@H](Cc1ccccc1)C(=O)N[C@H](C(=O)N[C@@H](Cc1ccccc1)C(=O)N[C@@H](CCCNC(=N)N)C(=O)N[C@@H](C)C(=O)N[C@@H](CCCNC(=N)N)C(=O)N[C@@H](CCCCN)C(=O)NCC(=O)N[C@@H](CCCNC(=N)N)C(=O)N[C@@H](CCSC)C(=O)N[C@@H](CCSC)C(=O)N[C@@H](CC(=O)O)C(=O)N[C@H](C(=O)N[C@@H](CCCCN)C(=O)N[C@@H](CCCCN)C(N)=O)C(C)C)[C@@H](C)CC)[C@@H](C)O [Peptide 2815307, Myristoyl-TFIFRARKGRMMDVKK-NH2] (Myristoyl-TFIFRARKGRMMDVKK-NH2)	182	137	164	10681	24.79%	25.54%	36.94%	62.77%	86	29.09%	67.40%	66.80%	56.59%
